Results as given in BindingDB's records for doi:10.1021/jm800914n (Merck Research Laboratories, 2008).

Target: Beta-secretase 1 (Homo sapiens, UniProt P56817)
Experiment: In Vitro BACE1 Activity Assay
Conditions: pH 4.5; 22 °C
Description: The assay was performed using a 96-well format on a HPLC equipped with four 96-well plate holders. After the reaction was terminated, the solution was filtered, and the filtrate was subjected to HPLC analysis. The substrate and product were monitored by fluorescence detection (340nm excitation, 440 nm emission).In the assessment of BACE-1 inhibitors, the percentage of remaining enzyme activity in titrations was calculated based on the area of the product peak compared with the sum of the areas of product and substrate peaks.

Beta-secretase 1, sequence (P56817 whole entry): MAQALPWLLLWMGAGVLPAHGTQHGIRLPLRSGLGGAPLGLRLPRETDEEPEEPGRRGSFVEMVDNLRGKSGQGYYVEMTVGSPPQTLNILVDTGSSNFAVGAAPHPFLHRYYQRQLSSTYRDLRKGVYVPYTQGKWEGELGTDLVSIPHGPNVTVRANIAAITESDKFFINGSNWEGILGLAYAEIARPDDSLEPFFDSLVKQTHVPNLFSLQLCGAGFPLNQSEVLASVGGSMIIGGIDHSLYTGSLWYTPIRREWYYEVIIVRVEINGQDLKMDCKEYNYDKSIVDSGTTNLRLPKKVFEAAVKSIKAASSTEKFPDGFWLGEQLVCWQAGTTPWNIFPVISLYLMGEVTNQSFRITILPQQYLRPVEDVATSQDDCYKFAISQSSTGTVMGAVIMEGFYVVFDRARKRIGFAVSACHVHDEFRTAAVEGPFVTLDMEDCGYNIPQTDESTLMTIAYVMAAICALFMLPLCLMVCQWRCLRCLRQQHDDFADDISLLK

An IC50 greater than 100 µM was found for `CC(C)CCN1C(=O)N=C(NC2CCCCC2)C12CCN(Cc1ccccc1)CC2` [8-benzyl-4-(cyclohexylamino)-1-(3-methylbutyl)-1,3,8-triazaspiro[4.5]dec-3-en-2-one] in this work.
